# Reference: patent US7728040B1, “Polyamine conjugates as selective NMDA inhibitors and anti-cancer drugs” (University of Central Florids Research Foundation, Inc., priority 2002, dated 2010)
# Columns and labels:
# L1210 cells = assay: Cytotoxicity in L1210 cells; assay type: cell-based; conditions: Mus musculus; L1210 cells, no DFMO; read-out: L1210 IC50
# L1210 cells + DFMO = assay: Cytotoxicity in L1210 cells pretreated with DFMO; assay type: cell-based, mouse; conditions: Mus musculus; L1210 cells pretreated with DFMO; read-out: L1210 + DFMO IC50
# polyamine transporter = assay: Ki, affinity for the polyamine transporter in L1210 cells; assay type: binding, mouse
# Method: Biological Evaluation. Three cell lines were chosen for bioassay. L1210 (mouse leukemia) cells were selected for comparison with the published IC50 and Ki values determined for a variety of polyamine substrates. In this regard both Ki and IC50 values were measured in this line for comparison purposes. Chinese hamster ovary (CHO) cells were chosen along with a mutant cell line (CHO-MG) in order to comment on polyamine transporter affinity and cell selectivity. The CHO-MG cell line is polyamine-transport deficient and was isolated after chronic selection for growth resistance to methylglyoxalbis (guanylhydrazone). For the purposes of this study, the CHO-MG cell line represents cells with limited polyamine transport activity. In contrast, the parent CHO cell line illustrates cell types with active polyamine transport. Comparison of efficacy in these two lines provided an important screen to detect conjugate delivery via the polyamine transporter, PAT. For example, a conjugate with high utilization of the transporter would be very toxic to CHO cells, but less so to CHO-MG cells. Therefore, IC50 determination in these two CHO lines provided a relative ranking of delivery via the PAT.
# CHO-MG cells = assay: Cytotoxicity in CHO-MG cells (polyamine-transport deficient); assay type: cell-based, Chinese hamster; conditions: Cricetulus griseus, polyamine-transport deficient line, read-out: CHO-MG IC50
# CHO cells = assay: Cytotoxicity in CHO cells (active polyamine transporter); assay type: cell-based, Chinese hamster
# [1] = Metabolic de-alkylation to homospermidine in treated cells; assay type: in vitro ADME; conditions: cells treated with compound
# Excerpt: N-Alkylpolyamines can be broken down into their de-alkylated components by cellular metabolic pathways. For example, a N-alkyl-4,4-triamine ([…]2, where R is alkyl) can be converted into homospermidine, H2N(CH2)4NH(CH2)4NH2.
smiles,measurement,setting,value
"Cl.Cl.Cl.NCCCCN(CCCCN)Cc1c2ccccc2cc2ccccc12 [Compound 8e, N-(4-Amino-butyl)-N-anthracen-9-ylmethyl-butane-1,4-diamine, trihydrochloride]",IC50,L1210 cells,0.3 µM
same,IC50,L1210 cells + DFMO,0.15 µM
same,Ki,polyamine transporter,1.8 µM
same,IC50,CHO-MG cells,66.7 µM
same,IC50,"CHO cells; Cricetulus griseus, CHO, active polyamine transporter, read-out: CHO IC50",0.45 µM
same,CHO-MG/CHO IC50 ratio,"CHO cells; selectivity for cells with active polyamine transporter, trihydrochloride",148
same,formation of homospermidine in treated cells (de-alkylation),[1],did not form homospermidine
